Experimental data from patent US20080234361A1, “Pharmaceutical Compositions, Methods of Formulation Thereof and Methods of Use Thereof” (Rimonest Ltd., priority 2004, published 2008).
Entries after “also recorded” stand apart in the source; their conditions may differ.

Tested on: human PC-3 prostate cancer cells
Test: in vitro assay of PC-3 cell invasion across Matrigel artificial membrane
Format: cell-based
Settings: for X ± σ (X = mean number of invading cells, σ = standard deviation): PC-3 cells, HGF 40 ng/ml induced invasion, fixed total concentration 4 micrograms/ml, 72 hr culture, c+ 33 ± 10.7, c− 3 ± 1.7; for inhibition of PC-3 invasion, result in words: total dose 4 micrograms/ml, Kruskal-Wallis test
Description: In order to determine a possible molecular mechanism of mixtures of conjugated fatty acids and polyphenols according to the present invention, an accepted in vitro assay of cancer cell invasion was employed (Jiang et al., (1995) Regulation of the expression of E-cadherin on human cancer cells by gamma-linolenic acid (GLA). Cancer Res. 55:5043-5048).
Specifically, human PC-3 prostate cancer cells were used as an in vitro model to assess invasion across a Matrigel™ (Becton, Dickenson and Company, Franklin Lakes, N.J.) artificial membrane. Briefly, 6.5 mm diameter polycarbonate membranes (pore size 8 microns) […]. Following gel rehydration, 5×10^4 PC-3 human prostate cancer cells were added to each well. Hepatocyte growth factor/scatter factor (HGF) (Becton, Dickenson & Company, Franklin Lakes, N.J.) was used at 40 ng/ml to induce invasion. The upper chamber contained thested components (i.e. punicic acid, luteolin, caffeic acid or ellagic acid, or a combination of two, three or all four of the chemicals) at a fixed total concentration of 4 micrograms/ml.
Pure compounds (ellagic acid ([…], luteolin [L], caffeic acid [C] and punicic acid […]) were purchased commercially (E, C and L from Sigma Aldrich, Rehovot, Israel; P from Larodan Chemicals; Malmo; Sweden) and assayed as potential invasion inhibitors. The total dose was 4 micrograms/ml in each of 18 trials. The Kruskal-Wallis test was used to measure significance.

Compound | X ± σ (X = mean number of invading cells, σ = standard deviation) | inhibition of PC-3 invasion, result in words
O=c1oc2c(O)c(O)cc3c(=O)oc4c(O)c(O)cc1c4c23 [E, ellagic acid] | 7.4 ± 2.3 | inhibited invasion significantly
O=C(O)/C=C/c1ccc(O)c(O)c1 [C, caffeic acid] | 16.8 ± 3.4 | inhibited invasion significantly; also recorded: much less than that of ellagic acid, punicic acid or luteolin
O=c1cc(-c2ccc(O)c(O)c2)oc2cc(O)cc(O)c12 [L, luteolin] | 9 ± 1.6 | inhibited invasion significantly
CCCC\C=C/C=C/C=C\CCCCCCCC(=O)O [P, punicic acid] | 6.4 ± 1.1 | inhibited invasion significantly
